Assay results reported in patent publication US10294248B2, “Beta-lactamase inhibitors” (VenatoRx Pharmaceuticals, Inc., priority 2013, dated 2019).

Tests used:
[1] = target: T1, p99 AmpC β-lactamase (Class C) (Enterobacter cloacae, UniProt P05364); assay: β-Lactamase inhibition, p99 AmpC; format: biochemical
T1 construct: made in house; host or cells: E. coli BL21(DE3)
Method: (§1) For SHV-5, Kpc-2, p99AmpC and OXA-1 β-lactamases, E. coli BL21(DE3) bacterial cells carrying expression plasmids (expressed as native untagged proteins) for the individual β-lactamases were grown in 1 L of Superbroth (Teknova Inc. Hollister, Calif.) supplemented with 100 μg/ml kanamycin selection and 1×5052 (0.5% glycerol, 0.05% glucose and 0.2% α-lactose) at 35° C. for 18-20 hours. Cells were harvested by centrifugation (4,000×g, 4° C., 20 min), resuspended in 50 ml of 10 mM HEPES pH 7.5 ( 1/20 of the initial volume). The cells were lysed by sonication (5 pulses of 45 seconds) at 45 W on ice. The lysates were clarified by centrifugation at 10,000×g for 40 minutes at 4° C. Samples were diluted 5-fold in 50 mM sodium acetate pH 5.0, stored overnight at 4° C., after which they were centrifuged at 10,000×g for 30 minutes to clarify, and filtered through 0.45 μm filters. The samples were loaded onto a 5 ml Capto S sepharose cation exchange column (GE Healthcare) pre-equilibrated with 50 mM sodium acetate pH 5.0. The column was washed with 5 column volumes of 50 mM sodium acetate pH 5.0 to wash out unbound protein and a linear gradient of NaCl (0 to 500 mM) was used to elute the protein (over 16 CV) from the column. Fractions were assayed for β-lactamase activity using Centa (Calbiochem, Gibbstown, N.J.) or Nitrocefin (EMD Millipore chemicals, Darmstadt, Germany) as a reporter β-lactamase substrate for activity in the isolated fractions. Active fractions were pooled, concentrated and further purified by gel filtration chromatography on a Superdex 75 prep grade gel filtration column (GE Healthcare, Piscataway, N.J.) pre-equilibrated in 50 mM Hepes pH 7.5, 150 mM NaCl. Active fractions were pooled concentrated, quantitated by BCA protein determination (Thermo Scientific, Rockford, Ill.), dialyzed into PBS and frozen at −80° C. in 20% glycerol until use.
(§2) An equal volume of diluted enzyme stock was added, and the plates were incubated at 37° C. for 15 min. Nitrocefin was used as substrate for p99 AmpC, VIM-2 and OXA-1 and dispensed into each well at a final concentration of 100 μM. Absorbance at 486 nm was immediately monitored for 10 min using a Biotek Powerwave XS2 microplate spectrophotometer using the GEN5 software package (Biotek Instruments, Winooski Vt.). In an analogous fashion, imipenem was used as substrate for Kpc-2 and Cefotaxime was used for SHV-5, while changes in absorbance upon hydrolysis of the β-lactam ring were monitored at 300 nm and 260 nm respectively in UV-transparent 96-well microtiter assay plates. Maximum rates of hydrolysis were compared to those in control wells (without inhibitors), and percentages of enzyme inhibition were calculated for each concentration of inhibitor. The concentration of inhibitor needed to reduce the initial rate of hydrolysis of substrate by 50% (IC50) was calculated as the residual activity of β-lactamase at 486 nm using GraFit version 7 kinetics software package (Erithacus Software, Surrey, UK).
(§3) Using the methodology described above, examples of the current invention were evaluated for their ability to inhibit β-lactamase enzymes from all four Ambler classifications (A through D). […] NT=Not tested.

[2] = target: T2, OXA-1 β-lactamase (Class D oxacillinase) (Escherichia coli, UniProt P13661); assay: β-Lactamase inhibition, OXA-1; format: biochemical; conditions: nitrocefin 100 μM, 486 nm; 15 min preincubation at 37° C., PBS pH 7.4
T2 construct: made in house; host or cells: E. coli BL21(DE3)
T2 sequence (P13661 26-276): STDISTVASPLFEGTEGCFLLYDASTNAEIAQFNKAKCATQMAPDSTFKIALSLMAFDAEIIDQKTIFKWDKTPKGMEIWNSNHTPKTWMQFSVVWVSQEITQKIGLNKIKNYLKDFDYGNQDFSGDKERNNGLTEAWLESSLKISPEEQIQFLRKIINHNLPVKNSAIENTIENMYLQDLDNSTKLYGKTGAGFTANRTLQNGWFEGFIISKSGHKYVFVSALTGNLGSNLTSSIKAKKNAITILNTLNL
Method: as §1, §2, §3

[3] = system: S. aureus MSSA-7 producing penicillinase PC-1; assay: Broth microdilution MIC, S. aureus MSSA-7 PC-1; format: cell-based; conditions: fixed 4 μg/mL piperacillin; CAMHB, 16-20 hours at 37° C.
Source text: (§4) To determine the ability of test compounds to potentiate the inhibition of the growth of bacterial strains that produce beta-lactamase enzymes, classic cell based broth microdilution MIC assays were employed. Six bacteria strains producing beta-lactamase enzymes were used: E. coli expressing the Class A Extended Spectrum Beta-Lactamase (ESBL) CTX-M-15, E. cloacae expressing the Class C P99, K. pneumoniae expressing the Class A carbapenemase KPC-3, P. aeruginosa expressing the Class B carbapenemase VIM-2, K. pneumoniae expressing the class A carbapenemase KPC-2 and the class B carbapenemase VIM-4, and S. aureus producing the Class A penicillinase PC-1. The assay was conducted in Cation Adjusted Mueller Hinton Broth (CAMHB, BD #212322, BD Diagnostic Systems, Sparks, Md.). Bacteria strains were grown for 3-5 hours in CAMBH broth. Test compounds (Examples 1-30) were added to a microtiter plate in 2-fold serial dilutions in CAMHB in a final concentration range of 32 μg/mL to 0.25 μg/ml. An overlay of CAMHB containing a Beta-lactam was added to the compounds at a final static concentration of 4 μg/ml. […] In addition to the titration of test compounds the MICs of a panel of control beta-lactams is also tested to ensure the strains are behaving consistently from test to test. Once the test compound and antibiotics are added the plates can be inoculated according to CLSI broth microdilution method. After inoculation the plates are incubated for 16-20 hours at 37° C. then the Minimal Inhibitory Concentration (MIC) of the test compound is determined visually.
(§5) Using the methodology described above, examples of the current invention were evaluated for their ability to inhibit the growth of β-lactamase-producing bacteria in the presence of a β-lactam antibiotic.
(§6) Using the methodology described above in EXAMPLE III, exemplary compounds for Formula I or Formula Ia were evaluated for their ability to inhibit the growth of β-lactamase producing bacteria in the presence of a β-lactam antibiotic.

[4] = target: T3, SHV-5 β-lactamase (Class A ESBL) (Klebsiella pneumoniae, UniProt P0A3M1); assay: β-Lactamase inhibition, SHV-5; format: biochemical
T3 construct: made in house; host or cells: E. coli BL21(DE3)
T3 sequence (P0A3M1 22-286): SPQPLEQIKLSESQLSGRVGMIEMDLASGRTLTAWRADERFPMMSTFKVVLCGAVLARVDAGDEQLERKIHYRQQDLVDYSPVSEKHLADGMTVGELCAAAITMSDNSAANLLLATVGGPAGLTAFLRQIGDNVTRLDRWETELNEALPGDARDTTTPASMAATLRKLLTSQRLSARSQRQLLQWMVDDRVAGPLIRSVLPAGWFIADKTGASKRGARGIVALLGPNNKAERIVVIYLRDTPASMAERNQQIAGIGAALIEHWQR
Method: as §1, §2, §3

[5] = system: P. aeruginosa Ps296 expressing VIM-2; assay: Broth microdilution MIC, P. aeruginosa Ps296 VIM-2; format: cell-based; conditions: fixed 4 μg/mL meropenem; CAMHB, 16-20 hours at 37° C.
Source text: as §4, §5, §6

[6] = system: E. coli ESBL4 expressing CTX-M-15; assay: Broth microdilution MIC, E. coli ESBL4 CTX-M-15; format: cell-based; conditions: fixed 4 μg/mL ceftazidime; CAMHB, 16-20 hours at 37° C.
Source text: as §4, §5, §6

[7] = system: K. pneumoniae A-1797 expressing KPC-2 and VIM-4; assay: Broth microdilution MIC, K. pneumoniae A-1797 KPC-2/VIM-4; format: cell-based; conditions: fixed 4 μg/mL meropenem; CAMHB, 16-20 hours at 37° C.
Source text: as §4, §5, §6

[8] = target: T4, VIM-2 metallo-β-lactamase (Class B) (Pseudomonas aeruginosa, UniProt Q9K2N0); assay: β-Lactamase inhibition, VIM-2; format: biochemical; conditions: nitrocefin 100 μM, 486 nm; 15 min preincubation at 37° C., PBS pH 7.4
T4 construct: made in house; host or cells: E. coli BL21(DE3)
Method: For Vim-2 metallo β-lactamase, the procedure was identical with the following exceptions, first the protein was not pH adjusted to pH 5 with 50 mM sodium acetate, second, the chromatography step was changed to a 5 ml Q sepharose anion exchange column pre-equilibrated with 50 mM Hepes pH 7.5, and elution of the protein was achieved by a linear gradient of NaCl (0-600 mM). Finally, the VIM-2 purification required a second run (3rd step) on the Q sepharose anion exchange column to achieve acceptable purity (>90%).
as §2, §3

[9] = system: K. pneumoniae 156319 expressing KPC-3; assay: Broth microdilution MIC, K. pneumoniae 156319 KPC-3; format: cell-based; conditions: fixed 4 μg/mL meropenem; CAMHB, 16-20 hours at 37° C.
Source text: as §4, §5, §6

[10] = system: E. cloacae 144200 expressing Class C P99 AmpC; assay: Broth microdilution MIC, E. cloacae 144200 p99 AmpC; format: cell-based; conditions: fixed 4 μg/mL ceftazidime; CAMHB, 16-20 hours at 37° C.
Source text: as §4, §5, §6

[11] = target: T5, KPC-2 β-lactamase (Class A carbapenemase) (Klebsiella pneumoniae, UniProt Q9F663); assay: β-Lactamase inhibition, KPC-2; format: biochemical; conditions: imipenem substrate, 300 nm; 15 min preincubation at 37° C., PBS pH 7.4
T5 construct: made in house; host or cells: E. coli BL21(DE3)
T5 sequence (Q9F663 25-293, looked up): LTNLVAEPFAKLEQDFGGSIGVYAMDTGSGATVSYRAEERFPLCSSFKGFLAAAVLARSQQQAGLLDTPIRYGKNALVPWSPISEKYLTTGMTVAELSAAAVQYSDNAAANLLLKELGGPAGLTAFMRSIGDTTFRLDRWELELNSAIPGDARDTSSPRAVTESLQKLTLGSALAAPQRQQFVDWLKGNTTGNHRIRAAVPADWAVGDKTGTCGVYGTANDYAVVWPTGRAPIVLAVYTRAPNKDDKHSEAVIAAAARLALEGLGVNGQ
Method: as §1, §2, §3

T1 sequence (P05364 21-381): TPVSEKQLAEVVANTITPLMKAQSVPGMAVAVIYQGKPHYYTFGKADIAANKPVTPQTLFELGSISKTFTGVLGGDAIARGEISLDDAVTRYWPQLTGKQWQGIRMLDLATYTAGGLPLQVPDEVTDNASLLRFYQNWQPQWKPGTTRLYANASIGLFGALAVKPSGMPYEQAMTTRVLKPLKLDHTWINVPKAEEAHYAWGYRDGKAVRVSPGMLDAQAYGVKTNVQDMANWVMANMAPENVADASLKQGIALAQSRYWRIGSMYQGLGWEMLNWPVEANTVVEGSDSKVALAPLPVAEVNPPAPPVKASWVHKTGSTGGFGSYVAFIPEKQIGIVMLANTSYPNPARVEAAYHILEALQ

Structure (SMILES) | IC50 [1] [µM] | IC50 [2] [µM] | MIC of example compound in presence of fixed β-lactam: Fixed Pip, S. aureus MSSA-7 PC-1 [3] | IC50 [4] [µM] | MIC of example compound in presence of fixed β-lactam: Fixed Mero, P. aerug. Ps296 VIM-2 [5] | MIC of example compound in presence of fixed β-lactam: Fixed CAZ, E. coli ESBL4 CTX-M-15 [6] | MIC of example compound in presence of fixed β-lactam: Fixed Mero, K. P. A-1797 KPC-2 VIM-4 [7] | IC50 [8] [µM] | MIC of example compound in presence of fixed β-lactam: Fixed Mero, K. P. 156319 KPC-3 [9] | MIC of example compound in presence of fixed β-lactam: Fixed CAZ, E. cl. 144200 p99 AmpC [10] | IC50 [11] [µM]
NCC1CCN(CC(=O)N[C@H]2Cc3cccc(C(=O)O)c3OB2O)CC1 [Example 5, 3-[2-(4-Aminomethyl-piperidin-1-yl)-acetylamino]-2-hydroxy-3,4-dihydro-2H-benzo[e][1,2]oxaborinine-8-carboxylic acid] | < 0.1 | < 0.1 | B (the MIC in the presence of between 8 and 32 μg/mL of a β-lactamase inhibitor) | 1 to 10 | B (the MIC in the presence of between 8 and 32 μg/mL of a β-lactamase inhibitor) | C (the MIC in the presence of <4 μg/mL of a β-lactamase inhibitor) | C (the MIC in the presence of <4 μg/mL of a β-lactamase inhibitor) | 0.1 to 1 | C (the MIC in the presence of <4 μg/mL of a β-lactamase inhibitor) | C (the MIC in the presence of <4 μg/mL of a β-lactamase inhibitor) | < 0.1
N[C@@H]1CCN(CC(=O)N[C@H]2Cc3cccc(C(=O)O)c3OB2O)C1 [Example 6, 3-[2-(R-3-Amino-pyrrolidin-1-yl)-acetylamino]-2-hydroxy-3,4-dihydro-2H-benzo[e][1,2]oxaborinine-8-carboxylic acid] | < 0.1 | 0.1 to 1 | A (an MIC of the fixed β-lactam antibiotic in the presence of >32 μg/mL of a β-lactamase inhibitor) | < 0.1 | B (the MIC in the presence of between 8 and 32 μg/mL of a β-lactamase inhibitor) | C (the MIC in the presence of <4 μg/mL of a β-lactamase inhibitor) | B (the MIC in the presence of between 8 and 32 μg/mL of a β-lactamase inhibitor) | 1 to 10 | C (the MIC in the presence of <4 μg/mL of a β-lactamase inhibitor) | C (the MIC in the presence of <4 μg/mL of a β-lactamase inhibitor) | 0.1 to 1
N[C@H]1CCN(CC(=O)N[C@H]2Cc3cccc(C(=O)O)c3OB2O)C1 [Example 7, 3-[2-(S-3-Amino-pyrrolidin-1-yl)-acetylamino]-2-hydroxy-3,4-dihydro-2H-benzo[e][1,2]oxaborinine-8-carboxylic acid] | < 0.1 | 0.1 to 1 | C (the MIC in the presence of <4 μg/mL of a β-lactamase inhibitor) | < 0.1 | A (an MIC of the fixed β-lactam antibiotic in the presence of >32 μg/mL of a β-lactamase inhibitor) | C (the MIC in the presence of <4 μg/mL of a β-lactamase inhibitor) | A (an MIC of the fixed β-lactam antibiotic in the presence of >32 μg/mL of a β-lactamase inhibitor) | 1 to 10 | C (the MIC in the presence of <4 μg/mL of a β-lactamase inhibitor) | C (the MIC in the presence of <4 μg/mL of a β-lactamase inhibitor) | 0.1 to 1
O=C(CN1CCNCC1=O)N[C@H]1Cc2cccc(C(=O)O)c2OB1O [Example 8, 2-Hydroxy-3-[2-(2-oxo-piperazin-1-yl)-acetylamino]-3,4-dihydro-2H-benzo[e][1,2]oxaborinine-8-carboxylic acid] | < 0.1 | < 0.1 | C (the MIC in the presence of <4 μg/mL of a β-lactamase inhibitor) | 10 to 100 | A (an MIC of the fixed β-lactam antibiotic in the presence of >32 μg/mL of a β-lactamase inhibitor) | C (the MIC in the presence of <4 μg/mL of a β-lactamase inhibitor) | A (an MIC of the fixed β-lactam antibiotic in the presence of >32 μg/mL of a β-lactamase inhibitor) | 1 to 10 | C (the MIC in the presence of <4 μg/mL of a β-lactamase inhibitor) | C (the MIC in the presence of <4 μg/mL of a β-lactamase inhibitor) | 0.1 to 1
